Test results from PubChem BioAssay AID340 (DTP/NCI, 2004).
Several values for one entry are separate records, joined by “and”; a condition that tells them apart may be missing. Equal entries are not always repeated. Inconclusive results and toxic doses are left out.

Tested on: CD2F1 mice, ip reticulum cell sarcoma, survival T/C
Assay: NCI In Vivo Anticancer Drug Screen. Data for tumor model Reticulum Cell Sarcoma (Kelley Mouse) (intraperitoneal) in CD2F1 (CDF1) mice
Settings: endpoint: median survival time, schedule: Q01DX010 (ip), higher = longer survival
Description: The antitumor activity of compounds was measured in mice bearing transplantable tumors. Survival or tumor size were measured and the results are expressed as the measurement made in the treated group (T) divided by the measurement made in the vehicle treated control group (C). The tumor model used in this assay is Reticulum Cell Sarcoma (Kelley Mouse) (intraperitoneal) in CD2F1 (CDF1) mice

[1] = dose: 31.3 mg/kg/injection, vehicle: saline
[2] = dose: 62.5 mg/kg/injection, vehicle: saline
[3] = dose: 125.0 mg/kg/injection, vehicle: saline
[4] = dose: 0.25 mg/kg/injection, vehicle: saline
[5] = dose: 1.0 mg/kg/injection, vehicle: saline
[6] = dose: 1.25 mg/kg/injection, vehicle: saline
[7] = dose: 2.5 mg/kg/injection, vehicle: saline
[8] = dose: 5.0 mg/kg/injection, vehicle: saline
[9] = dose: 10.0 mg/kg/injection, vehicle: saline
[10] = dose: 2.0 mg/kg/injection, vehicle: saline
[11] = dose: 4.0 mg/kg/injection, vehicle: saline
[12] = dose: 8.0 mg/kg/injection, vehicle: saline
[13] = dose: 16.0 mg/kg/injection, vehicle: saline
[14] = dose: 6.25 mg/kg/injection, vehicle: saline
[15] = dose: 12.5 mg/kg/injection, vehicle: saline
[16] = dose: 25.0 mg/kg/injection, vehicle: saline

Question: For Nc1c(Br)cc2c(c1Br)Cc1cc([N+](=O)[O-])ccc1-2, which T/C (dose: 15.6 mg/kg/injection, vehicle: saline) is on record?
Answer: Its T/C is 100 % of control.

Question: And the T/C [1]?
Answer: The T/C was 100 % of control.

Question: And the T/C [2]?
Answer: The T/C was 88 % of control and 103 % of control.

Question: And the T/C [3]?
Answer: Its T/C is 94 % of control and 100 % of control.

Question: What does the source list for C1CN1c1nc(N2CC2)nc(N2CC2)n1?
Answer: T/C (dose: 0.13 mg/kg/injection, vehicle: saline): 100 % of control; T/C [4]: 100 % of control and 103 % of control; T/C [5]: 123 % of control

Question: For CCCCNc1ncnc2c1cnn2C, which T/C [1] is on record?
Answer: Its T/C is 95 % of control and 100 % of control.

Question: And the T/C [2]?
Answer: Its T/C is 94 % of control and 102 % of control.

Question: What about the T/C [3] of the same compound?
Answer: Its T/C is 90 % of control and 100 % of control.

Question: Which T/C (dose: 0.63 mg/kg/injection, vehicle: saline) does the source give for Oc1cc(CN(CCCl)CCCl)c(O)cc1CN(CCCl)CCCl here?
Answer: Its T/C is 100 % of control.

Question: What about the T/C [6] of the same compound?
Answer: Its T/C is 100 % of control.

Question: And the T/C [7]?
Answer: Its T/C is 106 % of control.

Question: And the T/C [8]?
Answer: The T/C was 100 % of control.

Question: Which results are given for Nc1nc(=S)c2[nH]cnc2[nH]1?
Answer: T/C [6]: 150 % of control and 170 % of control; T/C [8]: 105 % of control and 120 % of control; T/C [9]: 105 % of control and 108 % of control

Question: What does the source list for Nc1nc(N)c2nc(CNc3ccc(C(=O)NC(CCC(=O)O)C(=O)O)cc3)cnc2n1 (stereo not drawn)?
Answer: T/C (dose: 25.0 micrograms/kg/injection, vehicle: other): 105 % of control and 113 % of control; T/C (dose: 50.0 micrograms/kg/injection, vehicle: other): 107 % of control and 121 % of control; T/C (dose: 100.0 micrograms/kg/injection, vehicle: other): 110 % of control and 121 % of control; T/C (dose: 200.0 micrograms/kg/injection, vehicle: other): 94 % of control and 113 % of control

Question: How did the T/C [2] turn out when CC(=O)N(C)C was run?
Answer: Its T/C is 100 % of control and 107 % of control.

Question: What about the T/C [3] of the same compound?
Answer: The T/C was 95 % of control and 102 % of control.

Question: And the T/C (dose: 250.0 mg/kg/injection, vehicle: saline)?
Answer: Its T/C is 97 % of control and 105 % of control.

Question: What about the T/C (dose: 500.0 mg/kg/injection, vehicle: saline) of the same compound?
Answer: The T/C was 90 % of control and 100 % of control.

Question: For O=C(O)c1[nH]c(=O)[nH]c(=O)c1F, which T/C [6] is on record?
Answer: Its T/C is 91 % of control.

Question: What about the T/C [7] of the same compound?
Answer: Its T/C is 94 % of control.

Question: And the T/C [8]?
Answer: The T/C was 97 % of control and 100 % of control.

Question: And the T/C [9]?
Answer: The T/C was 94 % of control and 100 % of control.

Question: With O=C(Nc1ccc(NC2=NCCN2)cc1)c1ccc(C(=O)Nc2ccc(NC3=NCCN3)cc2)cc1 as the compound, how does the T/C [10] read?
Answer: Its T/C is 120 % of control and 121 % of control.

Question: What about the T/C [11] of the same compound?
Answer: Its T/C is 168 % of control.

Question: What about the T/C [12] of the same compound?
Answer: Its T/C is 167 % of control and 200 % of control.

Question: And the T/C [13]?
Answer: Its T/C is 107 % of control and 121 % of control.

Question: For CS(=O)(=O)OCCCCOS(C)(=O)=O, which T/C [14] is on record?
Answer: The T/C was 94 % of control and 105 % of control.

Question: And the T/C [15]?
Answer: Its T/C is 97 % of control and 108 % of control.

Question: What about the T/C [16] of the same compound?
Answer: Its T/C is 100 % of control and 102 % of control.

Question: And the T/C (dose: 50.0 mg/kg/injection, vehicle: saline)?
Answer: The T/C was 100 % of control and 105 % of control.

Question: Which results are given for COC(=O)[C@@H]1c2cc3c(c(O)c2[C@@H](OC2OC(C)C(OC)C(C)(OC)C2OC)C[C@]1(C)O)C(=O)c1c(O)cc2c(c1C3=O)O[C@H]1O[C@]2(C)[C@H](O)[C@@H](N(C)C)[C@@H]1O (stereo partly drawn)?
Answer: T/C (dose: 63.0 micrograms/kg/injection, vehicle: saline): 103 % of control; T/C (dose: 125.0 micrograms/kg/injection, vehicle: saline): 103 % of control and 105 % of control; T/C (dose: 250.0 micrograms/kg/injection, vehicle: saline): 103 % of control and 105 % of control; T/C (dose: 500.0 micrograms/kg/injection, vehicle: saline): 100 % of control; T/C (dose: 1000.0 micrograms/kg/injection, vehicle: saline): 94 % of control

Question: How did the T/C [11] turn out when CC(CCC(C)OS(C)(=O)=O)OS(C)(=O)=O (stereo not drawn) was run?
Answer: Its T/C is 100 % of control.

Question: What about the T/C [12] of the same compound?
Answer: The T/C was 103 % of control and 106 % of control.

Question: And the T/C [13]?
Answer: Its T/C is 100 % of control and 109 % of control.

Question: What about the T/C (dose: 32.0 mg/kg/injection, vehicle: saline) of the same compound?
Answer: Its T/C is 109 % of control and 112 % of control.

Question: How did the T/C (dose: 3.13 mg/kg/injection, vehicle: saline) turn out when CCCNc1ncnc2[nH]ncc12 was run?
Answer: Its T/C is 97 % of control and 100 % of control.

Question: What about the T/C [14] of the same compound?
Answer: Its T/C is 97 % of control and 100 % of control.

Question: And the T/C [15]?
Answer: The T/C was 97 % of control and 105 % of control.

Question: And the T/C [16]?
Answer: The T/C was 100 % of control and 102 % of control.

Question: How did the T/C [8] turn out when CN(C)c1ccc(/C=C/c2ccnc3ccccc23)cc1 was run?
Answer: The T/C was 100 % of control.

Question: What about the T/C [9] of the same compound?
Answer: Its T/C is 100 % of control and 112 % of control.

Question: And the T/C (dose: 20.0 mg/kg/injection, vehicle: saline)?
Answer: Its T/C is 96 % of control and 100 % of control.

Question: And the T/C (dose: 40.0 mg/kg/injection, vehicle: saline)?
Answer: The T/C was 96 % of control and 103 % of control.

Question: For N#C[C@@H]1C2C=CC(CC2)[C@H]1C#N, which T/C [4] is on record?
Answer: The T/C was 97 % of control.

Question: And the T/C (dose: 0.5 mg/kg/injection, vehicle: saline)?
Answer: Its T/C is 102 % of control and 105 % of control.

Question: What about the T/C [5] of the same compound?
Answer: The T/C was 88 % of control and 94 % of control.

Question: And the T/C [10]?
Answer: Its T/C is 97 % of control and 100 % of control.
